The text below walks through data of PubChem BioAssay AID608 (Sanford-Burnham Center for Chemical Genomics, 2007).

Calls of active or inactive are those of the source. The rule behind the calls is not given here.

This assay deals with Peptidyl-prolyl cis-trans isomerase FKBP1A (Homo sapiens) (UniProt P62942). The experiment in a line: small-molecule binding to FKBP12 – biophysical, NMR detection (AID 608). The following applies: purified FKBP12.
Sequence of Peptidyl-prolyl cis-trans isomerase FKBP1A (Homo sapiens) (P62942 whole entry, looked up): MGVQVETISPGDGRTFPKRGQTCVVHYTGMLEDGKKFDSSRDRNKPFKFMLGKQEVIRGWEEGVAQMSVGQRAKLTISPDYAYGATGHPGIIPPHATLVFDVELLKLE
On to `Cc1c(C(=O)Nc2ccccn2)oc2ccccc12`, for which the Kd is > 4 mM (inactive). The same measure for `CN1CCC(N(C)Cc2cccnc2)CC1`: > 4 mM (inactive). The figure for `CN1CN/C(=N\[N+](=O)[O-])N(c2ccccc2)C1` is > 4 mM (inactive); for `Cc1cc(O)c(C)c(O)c1C(=O)O` it is > 4 mM (inactive); for `O=C(O)c1ccc(N2CCOCC2)nc1` it is > 4 mM (inactive). The figure for `CN(C)N1C(=O)C2CCCCC2C1=O` (configuration not stated) is > 4 mM (inactive); for `CC(=O)OC(C)(C)[C@@H]1Cc2cc3ccc(=O)oc3cc2O1` it is > 4 mM (inactive).

`COC(=O)N1CCN(c2ccc(C(C)=O)cc2)CC1`: the Kd is > 4 mM (inactive). In the case of `CCOc1cc(C)c(Cl)cc1S(=O)(=O)N(C)C`, the Kd is > 4 mM (inactive). The figure for `c1ccc(C[N+]23CCN(CC2)c2ccccc23)cc1` is > 4 mM (inactive); for `Cc1nn(-c2ccccc2)nc1CN` it is > 4 mM (inactive). The figure for `Nc1ccc(Cc2ccc(N)cc2)cc1` is > 4 mM (inactive); for `CNS(=O)(=O)c1ccc2[nH]c(=O)[nH]c2c1` it is > 4 mM (inactive). For the compound `CC12OC(=O)CC3C(C)(C)[C@H](O)C=C[C@]3(C)C1CC[C@]1(C)C2=CC(=O)O[C@H]1c1ccoc1` (some centres not stated), the Kd was > 4 mM (inactive). The same measure for `COC1C(O)C(O[C@H]2CC[C@]3(C=O)C4C(CC[C@]3(O)C2)[C@@]2(O)CC[C@H](C3=CC(=O)OC3)[C@@]2(C)C[C@H]4OC(C)=O)OC(C)C1OC(C)=O` (some centres not stated): > 4 mM (inactive); for `CCc1ccccc1NC(=O)c1ccoc1C`: > 4 mM (inactive); for `NC(=O)C1CCN(CC2CC=CCC2)CC1` (configuration not stated): > 4 mM (inactive).

As to `CN1CC(=O)Nc2ccc([N+](=O)[O-])cc2C1=O`, the Kd was > 4 mM (inactive). Consider `c1ccc(-c2noc(-c3cccnc3)n2)nc1`, for which the Kd was > 4 mM (inactive).

For the compound `CC1=C(C(N)=O)C(c2ccco2)C(C(N)=O)=C(C)N1`, the Kd was > 4 mM (inactive). For the compound `CCOC(=O)CNC(=O)CSc1nnc(C)c(=O)[nH]1`, the Kd is > 4 mM (inactive).

With `Cc1cc(=O)[nH]c(N)n1`, the Kd was > 4 mM (inactive).

For the compound `CC1(C)CN=C(Nc2nc3ccccc3s2)S1`, the Kd was > 4 mM (inactive). The same measure for `O=C(NC(=S)NC1CCS(=O)(=O)C1)c1ccccc1` (configuration not stated): > 4 mM (inactive). The figure for `Cc1cc(=O)c2c(O)cc(O)c(C)c2o1` is > 4 mM (inactive); for `Cc1nn(CC(=O)Nc2ccccn2)c(=O)c2ccccc12` it is > 4 mM (inactive); for `O=C(Cn1cnc2ccccc2c1=O)N1CCOCC1` it is > 4 mM (inactive). The figure for `O=C(/C=C/c1ccc(O)c(O)c1)O[C@@H]1C[C@](O)(C(=O)O)C[C@@H](O)[C@H]1O` is > 4 mM (inactive). Take `COc1cccc2c(=O)n(CC(N)=O)ccc12`: the Kd was > 4 mM (inactive). The figure for `Cc1n[nH]c(=S)n(/N=C/c2cccs2)c1=O` is > 4 mM (inactive).

As to `O=CN1CCN(C(=O)c2ccccc2Cl)CC1`, the Kd is > 4 mM (inactive). As to `COC(=O)c1[nH]c2ccccc2c1C(=O)OC`, the Kd is > 4 mM (inactive). As for `COC(=O)C1=CO[C@@H](O[C@@H]2O[C@H](CO)[C@@H](O)[C@H](O)[C@H]2O)[C@@H]2[C@@H](C)[C@@H](O)C[C@H]12`, the Kd is > 4 mM (inactive). The same measure for `Cn1c(CO)nc2cc(N)ccc21`: > 4 mM (inactive); for `Oc1ccc(/C=C/c2cc(O)cc(O)c2)cc1`: > 4 mM (inactive); for `OCc1c[nH]c2ccccc12`: > 4 mM (inactive). For `Cc1nc(-c2ccc(CO)s2)cs1`, the Kd is > 4 mM (inactive). The figure for `CCc1ccc(/C=N/n2cnnc2)cc1` is > 4 mM (inactive); for `Cc1noc(C)c1C(=O)N1CCC2(CC1)OCCO2` it is > 4 mM (inactive). Take `CCCCCC1C(=O)CCC1CC(=O)O` (configuration not stated): the Kd is > 4 mM (inactive). Turning to `NC(=O)CSc1ccc2nnc(-c3ccccc3)n2n1`, the Kd is > 4 mM (inactive).

With `O=c1cc(-c2ccccc2)oc2cc(O)cc(O)c12`, the Kd is > 4 mM (inactive). `CC1(C)CC23C(=O)CCC(O)C2(C)CCC13` (configuration not stated): the Kd is > 4 mM (inactive).

With `CC(C)(C)CC(=O)NNC(=O)c1cnccn1`, the Kd is > 4 mM (inactive).

Consider `COc1cc2c3cc1Oc1c(OC)c(OC)cc4c1[C@@H](Cc1cccc(c1)Oc1ccc(c(O)c1)C[C@@H]3N(C)CC2)N(C)CC4`, for which the Kd was > 4 mM (inactive).

Turning to `C[C@]12C=CC(=O)C=C1CCC1C2CC[C@]2(C)C(=O)CCC12` (some centres not stated), the Kd was > 4 mM (inactive). The figure for `COc1cccc(Oc2ccc(N)cn2)c1` is > 4 mM (inactive); for `NCCCCN` it is > 4 mM (inactive). The same measure for `Clc1ccccc1OCCn1ccnc1`: > 4 mM (inactive); for `NC(=O)CSc1ccc(Br)cc1`: > 4 mM (inactive); for `COC(=O)c1cncc(C(=O)OC)c1`: > 4 mM (inactive). The figure for `CCNS(=O)(=O)c1ccc(OC)c(C)c1` is > 4 mM (inactive).

Turning to `Cn1c(=O)c2c(ncn2CCN)n(C)c1=O`, the Kd is > 4 mM (inactive).

As for `Cc1onc(-c2ccccc2)c1C(=O)Nc1ccncc1`, the Kd is > 4 mM (inactive).

As to `O=c1ccnc(Nc2ccccc2O)[nH]1`, the Kd is > 4 mM (inactive). Turning to `Cn1c(C(=O)O)ccc1S(N)(=O)=O`, the Kd was > 4 mM (inactive). The same measure for `O=C(O)C1CC(=O)N(CCc2ccc(Cl)cc2)C1` (configuration not stated): > 4 mM (inactive); for `O=C1NCCCC1C(=O)N/N=C/c1ccccc1` (configuration not stated): > 4 mM (inactive).

`O=C(Nc1ccccc1)NC1CCS(=O)(=O)C1` (configuration not stated): the Kd was > 4 mM (inactive). On to `O=C(O)c1csc(-c2ccccc2)n1`, for which the Kd is > 4 mM (inactive).

As to `CC(=O)O[C@@H]1CC2C(C)(CC[C@H](O)C2(C)C)C2CC[C@]3(C)C(=CC(=O)O[C@H]3c3ccoc3)C21C` (some centres not stated), the Kd was > 4 mM (inactive). On to `Cn1c(-c2ccccc2F)n[nH]c1=S`, for which the Kd was > 4 mM (inactive). The same measure for `CN(C)C(=O)Oc1cccc(-c2nnco2)c1`: > 4 mM (inactive); for `O=C(O)C1CSC(c2cc3ccccc3nc2Cl)N1` (configuration not stated): > 4 mM (inactive).

In the case of `C[n+]1ccn(C/C(N)=N/O)c1`, the Kd was > 4 mM (inactive). The figure for `CC(=O)CC1(O)C(=O)Nc2ccccc21` (configuration not stated) is > 4 mM (inactive).

Consider `COC1=C(OC)C(=O)C(C/C=C(\C)CC/C=C(\C)CC/C=C(\C)CC/C=C(/C)CC/C=C(\C)CC/C=C(\C)CC/C=C(\C)CC/C=C(\C)CC/C=C(\C)CCC=C(C)C)=C(C)C1=O`, for which the Kd was > 4 mM (inactive). In the case of `Oc1ccc(C2SCCS2)cc1`, the Kd is > 4 mM (inactive).

For the compound `OCC1COc2ccccc2C1` (configuration not stated), the Kd is > 4 mM (inactive). The figure for `O=C(c1ccc(N2CCNCC2)cc1)c1cccnc1` is > 4 mM (inactive); for `CC(=O)NC(c1ccccc1)c1cccnc1` (configuration not stated) it is > 4 mM (inactive); for `COCC(=O)Nc1ccc(F)cc1F` it is > 4 mM (inactive). In the case of `Cc1cc(C)cc(C(=O)n2cnnc2N)c1`, the Kd was > 4 mM (inactive). As to `O=C1c2ccccc2C(=O)N1CCc1ccccn1`, the Kd was > 4 mM (inactive). Turning to `COc1cccc(NC(=O)c2ocnc2C)c1`, the Kd is > 4 mM (inactive).

As for `C=C[C@](C)(O)CCC=C(C)C`, the Kd is > 4 mM (inactive). The same measure for `CC(C)(C#N)O[C@@H]1O[C@H](CO)[C@@H](O)[C@H](O)[C@H]1O`: > 4 mM (inactive). In the case of `O=C(O)c1cc2ccccc2o1`, the Kd was > 4 mM (inactive). The figure for `COc1cc(O)c(C)c(O)c1` is > 4 mM (inactive); for `Oc1cc(O)cc(/C=C/c2ccccc2)c1` it is > 4 mM (inactive); for `NCc1ccc(-c2cccs2)s1` it is > 4 mM (inactive). The figure for `CCOc1ccc(C)cc1S(=O)(=O)n1ccnc1` is > 4 mM (inactive); for `CCSc1nc2ccccc2n1CC(N)=O` it is > 4 mM (inactive). The same measure for `COc1cc2c(cc1OC)[C@@H]1C(=O)c3ccc4c(c3O[C@@H]1CO2)C=CC(C)(C)O4`: > 4 mM (inactive); for `COC(=O)Cc1cccc(OC)c1`: > 4 mM (inactive); for `Clc1ccccc1-c1nc(-c2cccnc2)no1`: > 4 mM (inactive). Turning to `O=C1CC(c2c[nH]c3ccccc23)C(=O)N1` (configuration not stated), the Kd was > 4 mM (inactive). Turning to `CN(C)c1nc(N2CCOCC2)nc(N2CCOCC2)n1`, the Kd is > 4 mM (inactive). With `O=C(NCc1ccncc1)c1cccc(F)c1`, the Kd result was “inactive”. Take `CC(=O)N1CCn2c3c(c(=O)c4cc(C)ccc42)CCC31` (configuration not stated): the Kd is > 4 mM (inactive). The same measure for `O=C(CSc1ccnc(=O)[nH]1)NCc1ccccc1`: > 4 mM (inactive); for `c1cncc(C(N2CCOCC2)N2CCOCC2)c1`: > 4 mM (inactive); for `Cc1cc(Oc2ccccc2)nc(N)n1`: > 4 mM (inactive). Consider `O=C(CCc1n[nH]c(=O)[nH]c1=O)NCc1ccccc1`, for which the Kd is > 4 mM (inactive). The figure for `CC(=O)Nc1cc(S(=O)(=O)N(C)C)ccc1Cl` is > 4 mM (inactive); for `COc1ccc(/C=C2\NC(=S)N(C)C2=O)cc1O` it is > 4 mM (inactive). The figure for `COc1c2c(cc3occ(-c4ccc5c(c4)OCO5)c(=O)c13)OC(C)(C)C=C2` is > 4 mM (inactive); for `COC(=O)CCSCC(=O)Nc1nccs1` it is > 4 mM (inactive). `CCCCNS(=O)(=O)c1ccc(OCC(=O)N2CCOCC2)cc1`: the Kd entry is “inactive”.

For `NC(=O)c1ccc(SCC(=O)O)c([N+](=O)[O-])c1`, the Kd is > 4 mM (inactive).

Consider `OCc1ccccc1O[C@@H]1O[C@H](CO)[C@@H](O)[C@H](O)[C@H]1O`, for which the Kd is > 4 mM (inactive).

On to `O=C1c2ccncc2C(=O)N1CNc1ccccn1`, for which the Kd was > 4 mM (inactive).
